Reference: patent US6831069B2, “Pyrrolo[2,3-d]pyrimidine nucleoside analogs” (priority 1999, dated 2004)
Structures can show the parent of a compound that is named as a salt.

Assays:
[1] = system: Human Prostate cancer cells, HTB81; experiment: VEGF secretion, VEGF Elisa Assay; assay type: cell-based; details: 72 hrs treatment
Method: The compounds 23a(5′-R) and 23a(5′-S) are potent in inhibition of secretion of Vascular Endothelial Growth Factor (VEGF) from Human Prostate cancer cells, HTB81. VEGF is recognized as angiogenesis marker since this molecule is crucial for migration and growth of endothelial cells and microvessel formation in vivo. […] The compounds were applied just after plating for 72 hrs. After that, the medium was collected and the level of VEGF was measured using VEGF Elisa Assay (R & D Systems) and expressed as pg of VEGF per ml of the medium.

[2] = system: Human Prostate cancer cells, HTB81; experiment: IL-8 secretion, IL-8 Elisa Assay; assay type: cell-based; details: concentrations indicated in FIG. 12
Description: The compound 23a(5′-R) and 23a(5′-S) indicate an inhibitory effect on secretion of Interleukin-8 (IL-8) from human prostate cancer cells, HTB81. IL-8 belongs to the class of chemo-attractant chemokines (type alpha), which are involved in inflammation processes due to attraction of neutrophils. Chemokines, in general, are known to be produced by various types of cancer. It is proven in several studies that inhibition of chemokine production by cancer cells is beneficial for the host. […] The medium collected from the culture was analyzed for IL-8 level using IL-8 Elisa Assay from R&D Systems.

activated human T cells = experiment: Analysis of cytokine mRNA (RT-PCR, Southern blot) in PMA-ION activated human T cells; assay type: cell-based; details: experiment corresponding to FIG. 18; FIG. 26
B10.PL (H-2u) mice = experiment: Murine EAE model of multiple sclerosis, prophylactic treatment; assay type: in vivo, mouse; details: 0.1 mg/kg IP daily for 10d before induction of disease
[3] = system: BALB/c and C57BL/6 lymph node CD4+ T cells; experiment: Generation of murine Th1 cells, IL-4 and IFNγ ELISA after restimulation; assay type: cell-based, mouse; details: murine CD4+ cells induced with IL-2, IFN-γ, IL-12; BALB/c and C57BL/6; versus without compound
PHA stimulated T-cells = experiment: Type 1 and Type 2 cytokines in PHA stimulated T-cells; assay type: cell-based, human; details: FIG. 24

C[C@@H](O)[C@H]1O[C@@H](n2cc(C#N)c3c(N)ncnc32)[C@H](O)[C@@H]1O [23a(5′-R), 4-Amino-5-cyano-7-(5(R)-C-methyl-β-D-ribofuranosyl)pyrrolo[2,3-d]pyrimidine]
secretion of VEGF [1]: inhibit secretion of VEGF in a dose-dependent manner
secretion of IL-8 [2]: inhibit secretion of IL-8 in a dose-dependent manner

C[C@H](O)[C@H]1O[C@@H](n2cc(C#N)c3c(N)ncnc32)[C@H](O)[C@@H]1O [23a(5′-S), 4-Amino-5-cyano-7-(5(S)-C-methyl-β-D-ribofuranosyl)pyrrolo[2,3-d]pyrimidine]
secretion of VEGF [1]: inhibit secretion of VEGF in a dose-dependent manner
secretion of IL-8 [2]: inhibit secretion of IL-8 in a dose-dependent manner

Cl.N=C(N)c1cn([C@@H]2O[C@H](CO)[C@@H](O)[C@H]2O)c2nc[nH]c(=O)c12 [ICN 17739, 7-(β-D-ribofuranosyl)pyrrolo[2,3-d]-4-pyrimidone-5-carboxamidine Hydrochloride]
anti-inflammatory and anti-proliferative responses (RNA expression) (activated human T cells): induction of anti-inflammatory and anti-proliferative responses

N=C(N)c1cn([C@@H]2O[C@H](CO)[C@H](O)C2O)c2nc[nH]c(=O)c12 (stereo partly drawn) [ICN 17739, 7-(β-D-ribofuranosyl)pyrrolo[2,3-d]-4-pyrimidone-5-carboxamidine Hydrochloride]
MBP-specific Th2 cytokine producing T-cells (B10.PL (H-2u) mice): induces MBP-specific Th2 cytokine producing T-cells
onset of murine EAE (B10.PL (H-2u) mice): clearly delayed onset
IFN-γ production of induced Th1 cells [3]: significantly decreased
IL-4 production of induced Th1 cells [3]: significantly increased
Type 1 cytokines (PHA stimulated T-cells): significant decrease
production of Type 2 cytokines (PHA stimulated T-cells): significant increase
